Test results published in ChEMBL document CHEMBL1201862, “PubChem BioAssay data set” (2004).
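Growth conditions: 96-well plates. Treatment: test compound, 48 hours, 5 concentrations. Analysis: linear interpolation between bracketing concentrations; unreached endpoints set to highest concentration. GI50: concentration for 50% inhibition of growth.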 Calls of active or inactive are those of the source. No stated cut-off is given here; in the data, active = GI50 up to about 1.1 µM and inactive = higher.

Experiments:
Experiment in all cases: DTP human tumour cell line panel, 48 h
ACHN = tested on: ACHN
CAKI-1 = tested on: CAKI-1
EKVX = tested on: EKVX
HL-60 = tested on: HL-60
HT-29 = tested on: HT-29
K562 = tested on: K562
MDA-MB-231 = tested on: MDA-MB-231
MDA-N = tested on: MDA-N
Malme-3M = tested on: Malme-3M
NCI-H226 = tested on: NCI-H226
NCI-H23 = tested on: NCI-H23
NCI-H522 = tested on: NCI-H522
NCI/ADR-RES = tested on: NCI/ADR-RES
OVCAR-3 = tested on: OVCAR-3
OVCAR-4 = tested on: OVCAR-4
RXF 393 = tested on: RXF 393
SF-268 = tested on: SF-268
SF-539 = tested on: SF-539
UACC-257 = tested on: UACC-257
UACC-62 = tested on: UACC-62

Measured: GI50

COC(=O)CCCc1nc2ccccc2nc1/N=N/c1ccccc1
inactive: ACHN 74 µM | CAKI-1 41.6 µM | EKVX 73.6 µM | HL-60 2.57 µM | HT-29 32.1 µM | K562 19.3 µM | MDA-MB-231 > 100 µM | MDA-N 48.2 µM | Malme-3M 17.4 µM | NCI-H226 43 µM | NCI-H23 39 µM | NCI-H522 19.1 µM | NCI/ADR-RES 18.7 µM | OVCAR-3 31.3 µM | OVCAR-4 50.8 µM | RXF 393 62.5 µM | SF-268 51.2 µM | SF-539 70.8 µM | UACC-257 45.9 µM | UACC-62 > 100 µM

O=C1c2c(F)c(F)c(F)c(F)c2SC2=Nc3cccc4cccc(c34)N12
inactive: ACHN 7.05 µM | CAKI-1 14.9 µM | EKVX 9.79 µM | HL-60 2.07 µM | HT-29 7.48 µM | K562 2.02 µM | MDA-MB-231 3.24 µM | MDA-N 5.05 µM | Malme-3M 3.48 µM | NCI-H226 11.4 µM | NCI-H23 3.88 µM | NCI-H522 2.54 µM | NCI/ADR-RES 2.77 µM | OVCAR-3 3.21 µM | OVCAR-4 3.49 µM | RXF 393 4.1 µM | SF-268 3.61 µM | SF-539 6.18 µM | UACC-257 5.19 µM | UACC-62 4.22 µM

O=C1NC(=S)NC(=O)C1=C(O)Nc1ccccc1
inactive: ACHN 23.6 µM | CAKI-1 20.8 µM | EKVX 35.7 µM | HL-60 28.1 µM | HT-29 47.4 µM | K562 27.7 µM | MDA-MB-231 31.8 µM | MDA-N 30 µM | Malme-3M 25.8 µM | NCI-H226 30.5 µM | NCI-H23 26.3 µM | NCI-H522 21.7 µM | NCI/ADR-RES 30.5 µM | OVCAR-3 25.5 µM | OVCAR-4 34.6 µM | RXF 393 33.2 µM | SF-268 32.7 µM | SF-539 23.8 µM | UACC-257 38.1 µM | UACC-62 19.5 µM

CC(C)(C)OC(=O)c1ccc(NCC2=C(Br)C(=O)C=CC2=O)cc1
inactive: ACHN 17.9 µM | CAKI-1 11.6 µM | EKVX 19.7 µM | HL-60 1.79 µM | HT-29 17.5 µM | K562 11.7 µM | MDA-MB-231 19.1 µM | MDA-N 20 µM | Malme-3M 14.9 µM | NCI-H226 22.1 µM | NCI-H23 19.6 µM | NCI-H522 4.47 µM | NCI/ADR-RES 20.1 µM | OVCAR-3 10.6 µM | OVCAR-4 14.1 µM | RXF 393 13.7 µM | SF-268 19.6 µM | SF-539 21.5 µM | UACC-257 21.7 µM | UACC-62 16.6 µM

COc1cccc2c(=O)c3c(n(C)c12)OC(C(C)C)C3 (stereo not given)
inactive: ACHN 63 µM | CAKI-1 42.8 µM | EKVX 89.5 µM | HL-60 69.7 µM | HT-29 > 100 µM | K562 27.5 µM | MDA-MB-231 > 100 µM | MDA-N > 100 µM | Malme-3M > 100 µM | NCI-H226 83.2 µM | NCI-H23 > 100 µM | NCI-H522 > 100 µM | NCI/ADR-RES 55.7 µM | OVCAR-3 > 100 µM | OVCAR-4 22.5 µM | RXF 393 > 100 µM | SF-268 > 100 µM | SF-539 > 100 µM | UACC-257 > 100 µM | UACC-62 > 100 µM

OC1C=C2C3CN(Cc4cc5c(cc43)OCO5)[C@H]2C[C@@H]1O (stereo not given in full)
inactive: ACHN 2.65 µM | CAKI-1 3.44 µM | EKVX 4.36 µM | HL-60 2.61 µM | HT-29 3.69 µM | K562 4.31 µM | MDA-MB-231 18.1 µM | MDA-N 3.89 µM | Malme-3M 7.23 µM | NCI-H226 > 100 µM | NCI-H23 5.96 µM | NCI-H522 7.28 µM | NCI/ADR-RES 15.7 µM | OVCAR-3 7.13 µM | OVCAR-4 3.07 µM | RXF 393 2.54 µM | SF-268 7.28 µM | SF-539 16.9 µM | UACC-257 2.07 µM | UACC-62 10.6 µM

CC1=NN(c2cccc(S(=O)(=O)O)c2)C2(C1)SCC(=O)N2c1nc2ccccc2s1 (stereo not given)
inactive: ACHN > 100 µM | CAKI-1 > 100 µM | EKVX > 100 µM | HL-60 91.2 µM | HT-29 > 100 µM | K562 > 100 µM | MDA-MB-231 > 100 µM | MDA-N > 100 µM | Malme-3M > 100 µM | NCI-H226 > 100 µM | NCI-H23 > 100 µM | NCI-H522 > 100 µM | NCI/ADR-RES > 100 µM | OVCAR-3 83.2 µM | OVCAR-4 > 100 µM | RXF 393 > 100 µM | SF-268 > 100 µM | SF-539 17.6 µM | UACC-257 > 100 µM | UACC-62 > 100 µM

O=C1NNC2NC(=O)C3(NN2C1=O)c1ccccc1-c1ccccc13 (stereo not given)
inactive: ACHN > 100 µM | CAKI-1 > 100 µM | EKVX > 100 µM | HL-60 > 100 µM | HT-29 > 100 µM | K562 > 100 µM | MDA-MB-231 > 100 µM | MDA-N > 100 µM | Malme-3M > 100 µM | NCI-H226 > 100 µM | NCI-H23 > 100 µM | NCI-H522 > 100 µM | NCI/ADR-RES > 100 µM | OVCAR-3 > 100 µM | OVCAR-4 > 100 µM | RXF 393 > 100 µM | SF-268 > 100 µM | SF-539 > 100 µM | UACC-257 > 100 µM | UACC-62 > 100 µM

C1=C(c2ccccc2)C(N2CCOCC2)Oc2ccccc21 (stereo not given)
inactive: ACHN > 100 µM | CAKI-1 > 100 µM | EKVX > 100 µM | HL-60 42.7 µM | HT-29 > 100 µM | K562 91.8 µM | MDA-MB-231 > 100 µM | MDA-N 92.5 µM | Malme-3M > 100 µM | NCI-H226 > 100 µM | NCI-H23 > 100 µM | NCI-H522 > 100 µM | NCI/ADR-RES 79.8 µM | OVCAR-3 > 100 µM | OVCAR-4 > 100 µM | RXF 393 > 100 µM | SF-268 > 100 µM | SF-539 > 100 µM | UACC-257 > 100 µM | UACC-62 95.3 µM

O=C(Nc1ccc2[nH]c(C(=O)N3CC(CCl)c4c3cc([N+](=O)[O-])c3ccccc43)cc2c1)c1cc2ccccc2o1 (stereo not given)
inactive: ACHN 44.8 µM | CAKI-1 > 100 µM | EKVX > 100 µM | HL-60 22.1 µM | HT-29 > 100 µM | K562 > 100 µM | MDA-MB-231 > 63 µM | MDA-N > 100 µM | Malme-3M > 100 µM | NCI-H226 48.9 µM | NCI-H23 > 55.7 µM | NCI-H522 > 100 µM | NCI/ADR-RES > 50.6 µM | OVCAR-3 > 100 µM | OVCAR-4 > 100 µM | RXF 393 > 1100 µM | SF-268 > 100 µM | SF-539 > 1100 µM | UACC-257 > 100 µM | UACC-62 > 100 µM
